# Molecular target: FimH-CRD (Escherichia coli, UniProt P08191)
# Test: Competitive binding assay (fluorescence polarization, Alexa647 mannoside probe)
# Procedure: The following competitive binding assay is performed: Round bottom, low volume 384-well microtiter plates are filled with 20 μl/well of a binding solution of FimH-CRD in 50 mM Tris, pH 7.0, 100 mM NaCl, 1 mM EDTA, 5 mM beta mercaptoethanol, 0.05% BSA, 5 nM of the Alexa647 mannoside probe and 60 nM of the FimH-CRD. Control wells using the same conditions but no FimH-CRD added are also prepared (protein-free). Compounds are serially diluted (12-point dose) in DMSO from 75 μM down to 0.4 nM. Compounds or DMSO are then added to each well (0.5 μl) to reach the final concentration of each drug (2.5% final DMSO concentration), in duplicate. Plates are then incubated for a minimum of five hours at room temperature in the dark. Plates are then read using the SpectaMax Paradigm Multi-Mode plate reader and the appropriate fluorescent polarization Detection cartridge (Alexa-647).
# Alexa 647 mannoside probe is prepared using the similar procedure reported for FAM mannoside (Han, Z. et. al., 2010, J. Med. Chem., 53, 4779) and is described in the scheme below.
# To a blue colored stirred solution of (2S,3S,4S,5S,6R)-2-(4-aminobutoxy)-6-(hydroxymethyl)tetrahydropyran-3,4,5-triol (2.21 mg, 0.009 mmol) and the (2E)-2-[(2E,4E)-5-[3,3-dimethyl-5-sulfonato-1-(3-sulfonatopropyl)indol-1-ium-2-yl]penta-2,4-dienylidene]-3-[6-(2,5-dioxopyrrolidin-1-yl)oxy-6-oxo-hexyl]-3-methyl-1-(3-sulfonatopropyl)indoline-5-sulfonate (Potassium Ion (3)) (4.9 mg, 0.0044 mmol) in DMF (44 μL) is added Et3N (5.4 mg, 7.0 μL, 0.053 mmol) at rt. The solution is stirred at room temperature over night, concentrated, dissolved in water and purified on 12 g C-18 silica gel cartridge on Isolera system using acetonitrile in water (0 to 40%, 10 CV) and followed by lyophilization to afford Alexa 647 mannoside probe (3.3 mg, 34%) as deep blue solid.
# The Kd values of the compounds tested in duplicates are calculated with prism software (GraphPad Software, Inc, La Jolla, USA) with Alexa-647 probe and FimH-CRD.
# FimH-CRD, sequence (P08191 22-177): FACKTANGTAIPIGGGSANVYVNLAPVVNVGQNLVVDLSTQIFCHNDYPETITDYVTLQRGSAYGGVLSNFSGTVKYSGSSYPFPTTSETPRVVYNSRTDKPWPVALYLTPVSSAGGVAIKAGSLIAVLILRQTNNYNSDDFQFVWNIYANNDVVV
row,Compound,Kd
1,"CNC(=O)c1ccc(-c2ccc(C)c(O[C@H]3O[C@H](CO)[C@@H](O)[C@H](C[C@H]4O[C@H](CO)[C@@H](O)[C@H](O)[C@@H]4O)[C@@H]3O)c2)cc1 [Compound 15, 4-[3-[(2R,3S,4S,5S,6R)-3,5-Dihydroxy-6-(hydroxymethyl)-4-[[(2R,3S,4R,5S,6R)-3,4,5-trihydroxy-6-(hydroxymethyl)tetrahydropyran-2-yl]methyl]tetrahydropyran-2-yl]oxy-4-methyl-phenyl]-N-methyl-benzamide]",19 nM
2,"CNC(=O)c1cccc(O[C@H]2O[C@H](CO)[C@@H](O)[C@H](C[C@H]3O[C@H](CO)[C@@H](O)[C@H](O)[C@@H]3O)[C@@H]2O)c1 [Compound 5, 3-[(2R,3S,4S,5S,6R)-3,5-Dihydroxy-6-(hydroxymethyl)-4-[[(2R,3S,4R,5S,6R)-3,4,5-trihydroxy-6-(hydroxymethyl)tetrahydropyran-2-yl]methyl]tetrahydropyran-2-yl]oxy-N-methyl-benzamide]",72 nM
3,"CNC(=O)c1cccc(-c2ccc(O[C@H]3O[C@H](CO)[C@@H](O)[C@H](C[C@H]4O[C@H](CO)[C@@H](O)[C@H](O)[C@@H]4O)[C@@H]3O)c(C)c2)c1 [Compound 4, 3-[4-[(2R,3S,4S,5S,6R)-3,5-Dihydroxy-6-(hydroxymethyl)-4-[[(2R,3S,4R,5S,6R)-3,4,5-trihydroxy-6-(hydroxymethyl)tetrahydropyran-2-yl]methyl]tetrahydropyran-2-yl]oxy-3-methyl-phenyl]-N-methyl-benzamide]",51 nM
4,"CNC(=O)Cc1cccc(-c2cccc(O[C@H]3O[C@H](CO)[C@@H](O)[C@H](C[C@H]4O[C@H](CO)[C@@H](O)[C@H](O)[C@@H]4O)[C@@H]3O)c2)c1 [Compound 10, 2-[3-[3-[(2R,3S,4S,5S,6R)-3,5-Dihydroxy-6-(hydroxymethyl)-4-[[(2R,3S,4R,5S,6R)-3,4,5-trihydroxy-6-(hydroxymethyl)tetrahydropyran-2-yl]methyl]tetrahydropyran-2-yl]oxyphenyl]phenyl]-N-methyl-acetamide]",50 nM
5,"OC[C@H]1O[C@H](C[C@@H]2[C@H](O)[C@@H](Oc3cccc(O)c3)O[C@H](CO)[C@H]2O)[C@@H](O)[C@@H](O)[C@@H]1O [Compound 6, (2R,3S,4R,5S,6R)-2-[[(2R,3S,4S,5S,6R)-3,5-Dihydroxy-2-(hydroxymethyl)-6-(3-hydroxyphenoxy)tetrahydropyran-4-yl]methyl]-6-(hydroxymethyl)tetrahydropyran-3,4,5-triol]",301 nM
6,"O=C1NCC(c2ccc(O[C@H]3O[C@H](CO)[C@@H](O)[C@H](C[C@H]4O[C@H](CO)[C@@H](O)[C@H](O)[C@@H]4O)[C@@H]3O)cc2)=C(O)N1 [Compound 12, 5-[4-[(2R,3S,4S,5S,6R)-3,5-Dihydroxy-6-(hydroxymethyl)-4-[[(2R,3S,4R,5S,6R)-3,4,5-trihydroxy-6-(hydroxymethyl)tetrahydropyran-2-yl]methyl]tetrahydropyran-2-yl]oxyphenyl]-6-hydroxy-3,4-dihydro-1H-pyrimidin-2-one]",111 nM
7,"CNC(=O)Cc1cccc(-c2ccc(O[C@H]3O[C@H](CO)[C@@H](O)[C@H](C[C@H]4O[C@H](CO)[C@@H](O)[C@H](O)[C@@H]4O)[C@@H]3O)cc2)c1 [Compound 9, 2-[3-[4-[(2R,3S,4S,5S,6R)-3,5-Dihydroxy-6-(hydroxymethyl)-4-[[(2R,3S,4R,5S,6R)-3,4,5-trihydroxy-6-(hydroxymethyl)tetrahydropyran-2-yl]methyl]tetrahydropyran-2-yl]oxyphenyl]phenyl]-N-methyl-acetamide]",79 nM
8,"CNC(=O)c1cccc(-c2ccc(O[C@H]3O[C@H](CO)[C@@H](O)[C@H](C[C@H]4O[C@H](CO)[C@@H](O)[C@H](O)[C@@H]4O)[C@@H]3O)cc2)c1 [Compound 3, 3-[4-[(2R,3S,4S,5S,6R)-3,5-Dihydroxy-6-(hydroxymethyl)-4-[[(2R,3S,4R,5S,6R)-3,4,5-trihydroxy-6-(hydroxymethyl)tetrahydropyran-2-yl]methyl]tetrahydropyran-2-yl]oxyphenyl]-N-methyl-benzamide]",66 nM
9,"CNC(=O)c1cccc(-c2ccc(O[C@H]3O[C@H](CO)[C@@H](O)[C@H](C(O)[C@H]4O[C@H](CO)[C@@H](O)[C@H](O)[C@@H]4O)[C@@H]3O)cc2)c1 (stereo partly drawn) [Compound 1, 3-[4-[(2R,3S,4R,5S,6R)-3,5-Dihydroxy-6-(hydroxymethyl)-4-[hydroxy-[(2R,3S,4S,5S,6R)-3,4,5-trihydroxy-6-(hydroxymethyl)tetrahydropyran-2-yl]methyl]tetrahydropyran-2-yl]oxyphenyl]-N-methyl-benzamide]",29 nM
10,"CNC(=O)c1cc(C(=O)NC)cc(-c2cccc(O[C@H]3O[C@H](CO)[C@@H](O)[C@H](C[C@H]4O[C@H](CO)[C@@H](O)[C@H](O)[C@@H]4O)[C@@H]3O)c2)c1 [Compound 13, 5-[3-[(2R,3S,4S,5S,6R)-3,5-Dihydroxy-6-(hydroxymethyl)-4-[[(2R,3S,4R,5S,6R)-3,4,5-trihydroxy-6-(hydroxymethyl)tetrahydropyran-2-yl]methyl]tetrahydropyran-2-yl]oxyphenyl]-N1,N3-dimethyl-benzene-1,3-dicarboxamide]",48 nM
11,"O=c1[nH]cc(-c2ccc(O[C@H]3O[C@H](CO)[C@@H](O)[C@H](C[C@H]4O[C@H](CO)[C@@H](O)[C@H](O)[C@@H]4O)[C@@H]3O)cc2)c(=O)[nH]1 [Compound 11, 5-[4-[(2R,3S,4S,5S,6R)-3,5-Dihydroxy-6-(hydroxymethyl)-4-[[(2R,3S,4R,5S,6R)-3,4,5-trihydroxy-6-(hydroxymethyl)tetrahydropyran-2-yl]methyl]tetrahydropyran-2-yl]oxyphenyl]-1H-pyrimidine-2,4-dione]",97 nM
12,"Cc1nnc(-c2ccc(-c3ccc(O[C@H]4O[C@H](CO)[C@@H](O)[C@H](C[C@H]5O[C@H](CO)[C@@H](O)[C@H](O)[C@@H]5O)[C@@H]4O)cc3)cc2)o1 [Compound 7, (2R,3S,4R,5S,6R)-2-[[(2R,3S,4S,5S,6R)-3,5-Dihydroxy-2-(hydroxymethyl)-6-[4-[4-(5-methyl-1,3,4-oxadiazol-2-yl)phenyl]phenoxy]tetrahydropyran-4-yl]methyl]-6-(hydroxymethyl)tetrahydropyran-3,4,5-triol]",94 nM
13,"CNC(=O)c1cc(C(=O)NC)cc(-c2ccc(O[C@H]3O[C@H](CO)[C@@H](O)[C@H](C[C@H]4O[C@H](CO)[C@@H](O)[C@H](O)[C@@H]4O)[C@@H]3O)cc2)c1 [Compound 8, 5-[4-[(2R,3S,4S,5S,6R)-3,5-Dihydroxy-6-(hydroxymethyl)-4-[[(2R,3S,4R,5S,6R)-3,4,5-trihydroxy-6-(hydroxymethyl)tetrahydropyran-2-yl]methyl]tetrahydropyran-2-yl]oxyphenyl]-N1,N3-dimethyl-benzene-1,3-dicarboxamide]",64 nM
14,"CO[C@H]1O[C@H](CO)[C@@H](O)[C@H](C(O)[C@H]2O[C@H](CO)[C@@H](O)[C@H](O)[C@@H]2O)[C@@H]1O (stereo partly drawn) [Compound 2, (2R,3S,4S,5S,6R)-2-[[(2R,3S,4R,5S,6S)-3,5-Dihydroxy-2-(hydroxymethyl)-6-methoxy-tetrahydropyran-4-yl]-hydroxy-methyl]-6-(hydroxymethyl)tetrahydropyran-3,4,5-triol]",124 nM
